Columns and labels:
[1] = tested on: ELAM-1; assay: Inhibition by carbohydrates of ELAM-transfected COS cell adhesion to glycolipids; assay type: cell-based, human; conditions: for inhibition of cell adhesion to glycolipids: at 100 μg/ml, glycolipids eluted from DEAE-Sepharose with 5 mM potassium acetate; for inhibition of adhesion of ELAM-1 transfected COS cells to sialylated glycolipids: glycolipids resolved on TLC plates or adsorbed on PVC microtiter wells, concentration not given
Excerpt: Radiolabeled COS cells expressing cell surface ELAM-1 were used as probes to screen human leukocyte-derived glycolipids. ELAM-1 transfected COS cells adhered to a subset of sialylated glycolipids which were resolved on TLC plates or adsorbed on PVC microtiter wells. Adhesion to these glycolipids required calcium, but was not inhibited by heparin, chondroitin sulfate, keratin sulfate, or yeast phosphomannan (PPME).
COS cells, expressing membrane-bound ELAM-1, were metabolically radiolabeled with ^32 PO4 and used as probes in two assay systems to screen for recognition of glycolipids. In the first, glycolipids were adsorbed to the bottoms of PVC microtiter wells, while in the second they were resolved on TLC plates. In both assays these glycolipids were probed for their ability to support adhesion of ELAM-transfected COS cells, untransfected COS cells, or COS cells transfected with a plasmid containing an irrelevant cDNA, under conditions of controlled detachment force (see Swank-Hill, P., et al., Anal. Biochem. (1987) 183:27; and Blackburn, C. C., et al., J. Biol. Chem. (1986) 261:2873 each of which is incorporated herein by reference to disclose the details of such assaying methodology).
The material not retained on the column and in fractions eluted by step-wise increases in salt concentration (from 5 mM to 250 mM potassium acetate in methanol) were screened for cell adhesion.

[2] = tested on: ELAM-1; assay: Adhesion of ELAM-transfected COS cells to glycolipids adsorbed to PVC microtiter wells or resolved on TLC plates (controlled detachment force); assay type: cell-based, human; conditions: ELAM-transfected COS cells as probes
Method: The invention also includes a method of assaying candidate ligands for their ability to adhere to ELAM-1. The method comprises attaching candidate ligands to a substrate surface and then contacting the substrate surface thereon with recombinant cells, that are genetically engineered to express high levels of ELAM-1, for a sufficient time to allow the cells to adhere to the substrate bearing the candidate ligand. […] Candidate ligands which adhere to ELAM-1 are determined via the labels on the cells. Such molecules are isolated, characterized, and their structure specifically identified. Accordingly, the invention also includes glycolipid ligands which can be isolated via such an assay procedure.
COS cells, expressing membrane-bound ELAM-1, were metabolically radiolabeled with ^32 PO4 and used as probes in two assay systems to screen for recognition of glycolipids. In the first, glycolipids were adsorbed to the bottoms of PVC microtiter wells, while in the second they were resolved on TLC plates. […]

## heparin
[1]
  inhibition of cell adhesion to glycolipids: not inhibited
  inhibition of adhesion of ELAM-1 transfected COS cells to sialylated glycolipids: not inhibited

## CC(=O)N[C@H]1[C@H]([C@H](O)[C@H](O)CO)O[C@@](O[C@H]2[C@@H](O)[C@@H](CO)O[C@@H](O[C@H]3[C@H](O[C@@H]4O[C@@H](C)[C@@H](O)[C@@H](O)[C@@H]4O)[C@@H](NC(C)=O)C(O)O[C@@H]3CO)[C@@H]2O)(C(=O)O)C[C@@H]1O (stereo partly drawn) [Neu NAc α2-3Gal-β1-4(Fuc α1-3)-GlcNAc]
[2]
  recognition by / binding to ELAM-1: effectively bind to ELAM-1

## yeast phosphomannan
[1]
  inhibition of cell adhesion to glycolipids: not inhibited
  inhibition of adhesion of ELAM-1 transfected COS cells to sialylated glycolipids: not inhibited

## keratin sulfate
[1]
  inhibition of cell adhesion to glycolipids: not inhibited
  inhibition of adhesion of ELAM-1 transfected COS cells to sialylated glycolipids: not inhibited

## chondroitin sulfate
[1]
  inhibition of cell adhesion to glycolipids: not inhibited
  inhibition of adhesion of ELAM-1 transfected COS cells to sialylated glycolipids: not inhibited

Reference: patent publication US5648344A, “Methods of treating inflammation using selection binding compounds” (Glycomed Incorporated, priority 1992, dated 1997)
